Results taken from patent US6469002B1, “Imidazolidine compounds” (Millennium Pharmaceuticals, Inc., priority 2001, dated 2002).

biological target: T1, CXCR3 (Homo sapiens, UniProt P49682); assay: CXCR3/IP-10 radioligand binding (125I-IP-10 competition, CXCR3.L1/2 cell membranes); settings: Table 6; test compound 10 μmol/L; 125I-labeled IP-10 binding to CXCR3.L1/2 transfectant cell membrane
T1 construct: expressed in transfected cells
T1 sequence (P49682 1-368): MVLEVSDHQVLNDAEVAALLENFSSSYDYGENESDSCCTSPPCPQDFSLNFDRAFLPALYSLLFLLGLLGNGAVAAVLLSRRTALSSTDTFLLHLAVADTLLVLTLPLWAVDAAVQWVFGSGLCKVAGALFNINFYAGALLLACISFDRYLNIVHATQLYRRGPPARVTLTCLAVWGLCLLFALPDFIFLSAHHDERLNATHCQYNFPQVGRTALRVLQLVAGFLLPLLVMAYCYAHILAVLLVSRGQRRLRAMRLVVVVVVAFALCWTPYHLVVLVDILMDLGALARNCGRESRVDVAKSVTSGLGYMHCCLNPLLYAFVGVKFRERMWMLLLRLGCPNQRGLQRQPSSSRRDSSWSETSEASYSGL
From the text: The activity of the compounds of the present invention can be assessed using a suitable assay, such as a receptor binding assay, a chemotaxis assays, an extracellular acidification assay or a calcium flux assay (see, for example, Hesselgesser et al., J. Biol. Chem. 273(25):15687-15692 (1998) and WO 98/02151). For example, as described herein, small organic molecule antagonists of CXCR3/IP-10 binding have been identified utilizing cells engineered to express recombinant human CXCR3 (CXCR3.L1/2) and which bind ^125I-IP-10 and chemotax in response to IP-10, Mig or I-TAC. Specifically, a high through-put receptor binding assay, which monitors ^125I-IP-10 binding to CXCR3.L1/2 cell membranes, was used to identify small molecule antagonists which block binding of IP-10, Mig or I-TAC to CXCR3.
CXCR3.L1/2 cells were pelleted by centrifugation and stored at −80° C. The cells were lysed by thawing and resuspending at about 1.5×10^7 cells/ml in a hypotonic buffer (5 m mol/L HEPES (pH 7.2), 2 mmol/L EDTA, 10 μg/ml each leupeptin, aprotinin, and chymostatin, and 100 μg/ml PMSF (all from Sigma, St. Louis)). Nuclei and cellular debris was removed by centrifugation ([…], at 4° C.) for 10 min. The supematant was transferred to chilled centrifuge tubes (Nalge, Rochester, N.Y.) and the membrane fraction was recovered by centrifugation (25,000 g at 4° C.) for 45 min. The membrane pellet was resuspended in freezing buffer (10 mM HEPES (pH 7.2), 300 mmol/L Sucrose, 5 μg/ml each of leupeptin, aprotinin, and chymostatin, and 10 μg/ml PMSF). The total protein concentration was determined using a coomassie blue staining protein concentration assay kit (BioRad). The membrane preparation was aliquoted and stored at −80° C. until time of use.
CXCR3/IP-10 binding was performed in 96-well polypropylene plates (Costar) in a final volume of 0.1 ml of HBB buffer (50 mmol/L Hepes pH 7.4, 1 mmol/L CaCl2, 5 mmol/L MgCl2, 0.02% sodium azide, 0.5% BSA (bovine serum albumin)) containing 1 to 5 μg of CXCR3.L1/2 transfectant cell membrane protein and 0.05 to 0.2 nmol/L ^125I-labeled IP-10 (NEN, Boston, Mass.). Competition binding experiments were performed by including variable concentrations of unlabeled IP-10 or test compound. Nonspecific binding was determined following the addition of a 250 nmol/L unlabelled IP-10. Samples were incubated for 60 min at room temperature, and bound and free tracer (^125I-IP10) were separated by filtration through 96-well GF/B filterplates (Packard) presoaked in 0.3% polyethyleneimine. The filters were washed in HBB further supplemented with 0.5 mol/L NaCl, dried, and the amount of bound radioactivity determined by liquid scintillation counting. The competition is presented as the percent specific binding as calculated by 100×[(S-B)/(T-B)], where S is the radioactivity bound for each sample, B is background binding, and T is total bound in the absence of competitors. Duplicates were used throughout the experiments.

inhibition at 10 µM | SMILES
99% | CCN(CCN1CCN(C(=O)c2cc(C)cc(C)c2)C1=C(C#N)C#N)Cc1ccc(CN2CCCCC2)cc1 [Compound 25, 1-[2-{N-Ethyl-N-(4-(1-piperidinomethyl)benzyl)amino}ethyl]-3-(3,5-dimethylbenzoyl)-2-imidazolidinylidenepropanedinitrile]
64% | CCN(CCN1CCN(Cc2cc(C)cc(C)c2)C1=C(C#N)C#N)C(=O)c1ccc(CN2CCCCC2)cc1 [Compound 26, 1-[2-{N-Ethyl-N-(4-(1-piperidinomethyl)benzoyl)amino}ethyl]-3-(3,5-dimethylbenzyl)-2-imidazolidinylidenepropanedinitrile]
72% | CCN(CCN1CCN(Cc2cccc3ccccc23)C1=C(C#N)C#N)C(=O)c1ccc(CN2CCCCC2)cc1 [Compound 27, 1-[2-{N-Ethyl-N-(4-(1-piperidinomethyl)benzoyl)amino}ethyl]-3-(1-naphthylmethyl)-2-imidazolidinylidenepropanedinitrile]
41% | CCN(CCN1CCN(Cc2cc(Cl)cc(Cl)c2)C1=C(C#N)C#N)C(=O)c1ccc(CN2CCCCC2)cc1 [Compound 28, 1-[2-{N-Ethyl-N-(4-(1-piperidinomethyl)benzoyl)amino}ethyl]-3-(3,5-dichlorobenzyl)-2-imidazolidinylidenepropanedinitrile]
51% | CCCNCc1ccc(C(=O)N(CC)CCN2CCN(Cc3cc(C)cc(C)c3)C2=C(C#N)C#N)cc1 [Compound 29, 1-[2-{N-Ethyl-N-(4-(-1-propylaminomethyl)benzoyl)amino}ethyl]-3-(3,5-dimethylbenzyl)-2-imidazolidinylidenepropanedinitrile]
73% | CCCNCc1ccc(C(=O)N(CC)CCN2CCN(Cc3cc(Cl)cc(Cl)c3)C2=C(C#N)C#N)cc1 [Compound 30, 1-[2-{N-Ethyl-N-(4-(1-propylaminomethyl)benzoyl)amino}ethyl]-3-(3,5-dichlorobenzyl)-2-imidazolidinylidenepropanedinitrile]
